Experimental findings from patent US8580918B2, “Peptidic GLP-2 agonists” (Ferring B.V., priority 2009, dated 2013) are described below.

SMILES strings stand for the structures. Where a SMILES comes first, the peptide text is derived from it. [ ]: non-standard residue; d: D form. The star is where a group is joined. X2 = NC(=O)COCC(=O)NCCCOCCOCCOCCCN*; Nle = CCCC[C@H](N)C(=O)O; NHBn = c1ccc(CN*)cc1; NHiBu = CC(C)CN*

The series can be described thus: Pharmacokinetics in rats after intravenous bolus injection (systemic clearance). As to conditions: rat, plasma, 0.2 mg FB/kg, adult male Sprague-Dawley rats, i.v. bolus, dose 0.20 mg FB/kg, read-out: CL (ml/kg/min) Average. The format is in vivo. The method in brief:
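Adult male Sprague-Dawley rats (3-4, doubly cannulated) given IV jugular bolus at 0.1-1.0 mg/kg; serial carotid blood to K2EDTA plasma, LC/MS/MS quantitation. CL = dose/kg divided by AUC∞ (noncompartmental, trapezoid); mean ± SD.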
Consider `CCCC[C@H](NC(=O)[C@H](CCC(=O)O)NC(=O)[C@H](CC(=O)O)NC(=O)[C@H](CO)NC(=O)[C@H](Cc1ccccc1)NC(=O)[C@H](CO)NC(=O)CNC(=O)[C@H](CC(=O)O)NC(=O)CNC(=O)[C@@H](N)Cc1c[nH]cn1)C(=O)N[C@H](Cc1ccccc1)C(=O)N[C@H](C(=O)N[C@H](C(=O)N[C@@H](CC(C)C)C(=O)N[C@@H](CC(=O)O)C(=O)N[C@@H](CC(C)C)C(=O)N[C@@H](CC(C)C)C(=O)N[C@@H](C)C(=O)N[C@@H](C)C(=O)N[C@@H](CCCNC(=N)N)C(=O)N[C@@H](CC(=O)O)C(=O)N[C@@H](Cc1ccccc1)C(=O)N[C@H](C(=O)N[C@@H](CC(N)=O)C(=O)N[C@@H](Cc1c[nH]c2ccccc12)C(=O)N[C@@H](CC(C)C)C(=O)N[C@H](C(=O)N[C@@H](CCC(N)=O)C(=O)N[C@H](C(=O)N[C@@H](CCCCN)C(=O)N[C@H](C(=O)N[C@H](C(=O)N[C@@H](CC(=O)O)C(=O)NCCCOCCOCCOCCCNC(=O)COCC(N)=O)[C@@H](C)O)[C@@H](C)CC)[C@@H](C)O)[C@@H](C)CC)[C@@H](C)CC)[C@@H](C)CC)[C@@H](C)O` [Compound 56, [Gly2,Nle10,D-Phe11,Leu16] hGLP-2(1-33)-NH—CH2—((CH2)2O)3—(CH2)3—NHC(O)—CH2—O—CH2—C(O)—NH2] (H-HGDGSFSDE[Nle][dF]TILDLLAARDFINWLIQTKITD-X2), for which the clearance came out at 0.28 mL/kg/min.

As for `CCCC[C@H](NC(=O)[C@H](CCC(=O)O)NC(=O)[C@H](CC(=O)O)NC(=O)[C@H](CO)NC(=O)[C@H](Cc1ccccc1)NC(=O)[C@H](CO)NC(=O)CNC(=O)[C@H](CC(=O)O)NC(=O)CNC(=O)[C@@H](N)Cc1c[nH]cn1)C(=O)N[C@H](Cc1ccccc1)C(=O)N[C@H](C(=O)N[C@H](C(=O)N[C@@H](CC(C)C)C(=O)N[C@@H](CC(=O)O)C(=O)N[C@@H](CC(C)C)C(=O)N[C@@H](CC(C)C)C(=O)N[C@@H](C)C(=O)N[C@@H](C)C(=O)N[C@@H](CCCNC(=N)N)C(=O)N[C@@H](CC(=O)O)C(=O)N[C@@H](Cc1ccccc1)C(=O)N[C@H](C(=O)N[C@@H](CC(N)=O)C(=O)N[C@@H](Cc1c[nH]c2ccccc12)C(=O)N[C@@H](CC(C)C)C(=O)N[C@H](C(=O)N[C@@H](CCC(N)=O)C(=O)N[C@H](C(=O)N[C@@H](CCCCN)C(=O)N[C@H](C(=O)N[C@H](C(=O)N[C@@H](CC(=O)O)C(=O)NCC(C)C)[C@@H](C)O)[C@@H](C)CC)[C@@H](C)O)[C@@H](C)CC)[C@@H](C)CC)[C@@H](C)CC)[C@@H](C)O` [Compound 57, [Gly2,Nle10,D-Phe11,Leu16] hGLP-2(1-33)-NH-isobutyl] (H-HGDGSFSDE[Nle][dF]TILDLLAARDFINWLIQTKITD-NHiBu), the clearance stood at 0.17 mL/kg/min. As for `CCCC[C@H](NC(=O)[C@H](CCC(=O)O)NC(=O)[C@H](CC(=O)O)NC(=O)[C@H](CO)NC(=O)[C@H](Cc1ccccc1)NC(=O)[C@H](CO)NC(=O)CNC(=O)[C@H](CC(=O)O)NC(=O)CNC(=O)[C@@H](N)Cc1c[nH]cn1)C(=O)N[C@H](Cc1ccccc1)C(=O)N[C@H](C(=O)N[C@H](C(=O)N[C@@H](CC(C)C)C(=O)N[C@@H](CC(=O)O)C(=O)N[C@@H](CC(C)C)C(=O)N[C@@H](CC(C)C)C(=O)N[C@@H](C)C(=O)N[C@@H](C)C(=O)N[C@@H](CCCNC(=N)N)C(=O)N[C@@H](CC(=O)O)C(=O)N[C@@H](Cc1ccccc1)C(=O)N[C@H](C(=O)N[C@@H](CC(N)=O)C(=O)N[C@@H](Cc1c[nH]c2ccccc12)C(=O)N[C@@H](CC(C)C)C(=O)N[C@H](C(=O)N[C@@H](CCC(N)=O)C(=O)N[C@H](C(=O)N[C@@H](CCCCN)C(=O)N[C@H](C(=O)N[C@H](C(=O)N[C@@H](CC(=O)O)C(=O)NCc1ccccc1)[C@@H](C)O)[C@@H](C)CC)[C@@H](C)O)[C@@H](C)CC)[C@@H](C)CC)[C@@H](C)CC)[C@@H](C)O` [Compound 58, [Gly2,Nle10,D-Phe11,Leu16] hGLP-2(1-33)-NH-Benzyl] (H-HGDGSFSDE[Nle][dF]TILDLLAARDFINWLIQTKITD-NHBn), the figure is 0.1 mL/kg/min.
